ChEMBL document CHEMBL4266047, “First Report of Plant-Derived β-Sitosterol with Antithrombotic, in Vivo Anticoagulant, and Thrombus-Preventing Activities in a Mouse Model” (J Nat Prod, 2018)
pKi: −log10 of the molar value. The source made the active and inactive calls. The calls are words filed in the database; no cut-off is given here.

Assays:
[1] = tested on: Platelet; assay: Antiplatelet activity in human platelet rich plasma up to 10 uM incubated for 5 mins measured after 300 secs; assay type: functional, cell-based
[2] = tested on: Platelet; assay: Antiplatelet activity in human washed platelets up to 10 uM incubated for 5 mins measured after 300 secs; assay type: functional, cell-based
[3] = tested on: Mus musculus; assay: Anticoagulant activity in Swiss albino mouse assessed as increase in activated partial thromboplastin time at 50 mg/kg, iv measured after 5 hrs relative to control; assay type: functional
[4] = tested on: Mus musculus; assay: Anticoagulant activity in Swiss albino mouse assessed as increase in prothrombin time at 50 mg/kg, iv measured after 5 hrs relative to control; assay type: functional
[5] = tested on: Mus musculus; assay: Anticoagulant activity in Swiss albino mouse assessed as tail bleeding time at 50 mg/kg, iv measured after 5 hrs (reference value: 45.3 +/- 2.5 sec); assay type: functional
[6] = tested on: Mus musculus; assay: Anticoagulant activity in Swiss albino mouse assessed as plasma clotting time at 50 mg/kg, iv measured after 5 hrs (reference value: 175.5 +/- 9.1 sec); assay type: functional
[7] = target: Coagulation factor X (Homo sapiens) (UniProt P00742); assay: Binding affinity to human factor 10a at 1.25 to 15 uM after 3 mins by fluorescence spectrometric analysis
Coagulation factor X (Homo sapiens), sequence (P00742 41-179 limits assumed): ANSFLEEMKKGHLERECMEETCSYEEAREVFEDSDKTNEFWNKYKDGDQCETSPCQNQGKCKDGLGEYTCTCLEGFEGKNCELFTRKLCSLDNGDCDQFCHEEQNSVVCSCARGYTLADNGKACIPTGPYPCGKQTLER
Coagulation factor X (Homo sapiens), sequence (P00742 235-488 limits assumed): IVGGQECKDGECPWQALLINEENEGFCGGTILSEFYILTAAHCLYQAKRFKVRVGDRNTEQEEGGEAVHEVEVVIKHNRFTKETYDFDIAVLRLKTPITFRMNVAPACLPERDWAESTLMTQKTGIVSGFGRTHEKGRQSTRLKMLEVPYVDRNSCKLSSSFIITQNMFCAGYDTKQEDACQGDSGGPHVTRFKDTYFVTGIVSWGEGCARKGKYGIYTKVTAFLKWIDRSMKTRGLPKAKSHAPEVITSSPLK

[8] = tested on: Plasma; assay: Anticoagulant activity in human platelet poor plasma assessed as prolongation of calcium clotting time at 2.5 uM after 3 mins; assay type: functional, cell-free
[9] = tested on: HEK293; assay: Cytotoxicity against HEK293 cells assessed as decrease in cell viability at 50 uM after 24 hrs by MTT assay; assay type: cell-based; conditions: human, hek293, 24 h
[10] = tested on: Mus musculus; assay: Antithrombotic activity in Swiss albino mouse tail thrombosis model assessed as inhibition of k-carrageenan-induced thrombus formation at 50 mg/kg, po administered for one week followed by k-carrageenan challenge 30 mins post last compound dose and measured after 24 hrs; assay type: functional
[11] = target: Coagulation factor X (Homo sapiens) (UniProt P00742); assay: Inhibition of human factor 10a assessed as prothrombin activation using F3301 as substrate
[12] = tested on: Mus musculus; assay: Antithrombotic activity in Swiss albino mouse tail thrombosis model assessed as inhibition of k-carrageenan-induced thrombus formation administered orally for one week followed by k-carrageenan challenge 30 mins post last compound dose and measured after 24 to 72 hrs; assay type: functional, organism-based
[13] = target: T1, Prothrombin (Homo sapiens, UniProt P00734); assay: Binding affinity to human thrombin at 1.25 to 15 uM after 3 mins by fluorescence spectrometric analysis
[14] = tested on: Mus musculus; assay: Defibrinogenation activity in Swiss albino mouse plasma at 50 mg/kg, iv measured after 5 hrs; assay type: functional, organism-based
[15] = tested on: Mus musculus; assay: Antithrombotic activity in Swiss albino mouse tail thrombosis model assessed as inhibition of k-carrageenan-induced thrombus formation at 25 mg/kg, po administered for one week followed by k-carrageenan challenge 30 mins post last compound dose and measured after 24 hrs; assay type: functional
[16] = tested on: Mus musculus; assay: Antithrombotic activity in Swiss albino mouse tail thrombosis model assessed as inhibition of k-carrageenan-induced thrombus formation at 25 mg/kg, po administered for one week followed by k-carrageenan challenge 30 mins post last compound dose and measured after 48 hrs; assay type: functional
[17] = tested on: Plasma; assay: Anticoagulant activity in human platelet poor plasma assessed as prolongation of calcium clotting time after 3 mins; assay type: functional, cell-free
[18] = tested on: Blood; assay: Anticoagulant activity in goat whole blood assessed as prolongation of calcium clotting time after 3 mins; assay type: functional, tissue-based; conditions: Capra hircus
[19] = tested on: Mus musculus; assay: Antithrombotic activity in Swiss albino mouse tail thrombosis model assessed as inhibition of k-carrageenan-induced thrombus formation at 12.5 mg/kg, po administered for one week followed by k-carrageenan challenge 30 mins post last compound dose and measured after 72 hrs; assay type: functional
[20] = tested on: Mus musculus; assay: Antithrombotic activity in Swiss albino mouse tail thrombosis model assessed as inhibition of k-carrageenan-induced thrombus formation at 50 mg/kg, po administered for one week followed by k-carrageenan challenge 30 mins post last compound dose and measured after 72 hrs; assay type: functional
[21] = tested on: Mus musculus; assay: Antithrombotic activity in Swiss albino mouse tail thrombosis model assessed as inhibition of k-carrageenan-induced thrombus formation at 50 mg/kg, po administered for one week followed by k-carrageenan challenge 30 mins post last compound dose and measured after 48 hrs; assay type: functional
[22] = tested on: Blood; assay: Thrombolytic activity in goat non-heated blood clot assessed as plasmin activation at 1 uM using V0882 as substrate incubated for 20 mins measured for 15 mins in presence of serine protease inhibitor PMSF; assay type: functional, tissue-based; conditions: Capra hircus
[23] = tested on: Blood; assay: Thrombolytic activity in goat non-heated blood clot assessed as clot lysed after 3 hrs (reference value: 2.1 +/- 0.3 mg/microM); assay type: functional, Capra hircus
[24] = target: T1, Prothrombin; assay: Uncompetitive inhibition of human thrombin using T1637 as substrate by Michaelis-Menten plot analysis
[25] = target: T1, Prothrombin; assay: Binding affinity to human thrombin by isothermal calorimetric titration method
[26] = tested on: Erythrocyte; assay: Hemolytic activity against human erythrocytes assessed as hemolysis at 2.5 to 50 uM after 90 mins; assay type: ADME, cell-based; conditions: 1.5 h
[27] = tested on: Heterodera schachtii; assay: Inhibition of human fibrinogen at 5 uM after 120 mins by SDS-PAGE analysis
[28] = target: T1, Prothrombin; assay: Inhibition of human thrombin assessed as prolongation of fibrinogen clotting time of thrombin
[29] = tested on: Mus musculus; assay: Antithrombotic activity in Swiss albino mouse tail thrombosis model assessed as inhibition of k-carrageenan-induced thrombus formation at 12.5 mg/kg, po administered for one week followed by k-carrageenan challenge 30 mins post last compound dose and measured after 48 hrs; assay type: functional
[30] = target: T1, Prothrombin; assay: Inhibition of human thrombin using T1637 as substrate
[31] = tested on: Plasma; assay: Anticoagulant activity in human platelet poor plasma assessed as prolongation of calcium clotting time at 2.5 uM; assay type: functional, cell-free; conditions: TDE = time-dependent effect
[32] = target: T1, Prothrombin; assay: Inhibition of human thrombin at 7.5 uM using T1637 as substrate preincubated for 30 mins followed by heparin addition by SDS-PAGE analysis
[33] = tested on: Blood; assay: Thrombolytic activity in goat non-heated blood clot assessed as plasmin activation at 1 uM using V0882 as substrate incubated for 20 mins measured for 15 mins; assay type: functional, Capra hircus
[34] = target: T1, Prothrombin; assay: Inhibition of thrombin in human washed platelets assessed as reduction in thrombin-induced platelet aggregation after 5 mins
[35] = tested on: Blood; assay: Thrombolytic activity in goat heated blood clot assessed as plasmin activation at 1 uM using V0882 as substrate incubated for 20 mins measured for 15 mins; assay type: functional, Capra hircus
[36] = tested on: Mus musculus; assay: Antithrombotic activity in Swiss albino mouse tail thrombosis model assessed as inhibition of k-carrageenan-induced thrombus formation at 12.5 mg/kg, po administered for one week followed by k-carrageenan challenge 30 mins post last compound dose and measured after 24 hrs; assay type: functional
[37] = tested on: Blood; assay: Thrombolytic activity in goat heated blood clot assessed as clot lysed after 3 hrs (reference value: 0.7 +/- 0.2 mg/microM); assay type: functional, Capra hircus
[38] = tested on: Blood; assay: Thrombolytic activity in goat heated blood clot assessed as plasmin activation at 1 uM using V0882 as substrate incubated for 20 mins measured for 15 mins in presence of serine protease inhibitor PMSF; assay type: functional, tissue-based; conditions: Capra hircus
[39] = tested on: Plasma; assay: Anticoagulant activity in human platelet poor plasma assessed as increase in prothrombin time at 1.25 to 15 uM after 3 mins; assay type: functional, cell-free
[40] = tested on: Mus musculus; assay: Antithrombotic activity in Swiss albino mouse tail thrombosis model assessed as inhibition of k-carrageenan-induced thrombus formation at 25 mg/kg, po administered for one week followed by k-carrageenan challenge 30 mins post last compound dose and measured after 72 hrs; assay type: functional
[41] = target: T1, Prothrombin; assay: Inhibition of thrombin in human platelet rich plasma assessed as reduction in thrombin-induced platelet aggregation after 5 mins
[42] = tested on: Plasma; assay: Anticoagulant activity in human platelet poor plasma assessed as activated partial thromboplastin time at 10 uM after 3 mins (reference value: 14.2 +/- 1.3 sec); assay type: functional
[43] = tested on: Heterodera schachtii; assay: Binding affinity to human fibrinogen at 1.25 to 15 uM after 3 mins by fluorescence spectrometric analysis

CC(=O)Oc1ccccc1C(=O)O
Activity [1]: Active | Activity [2]: Active

CC1CNc2c(cccc2S(=O)(=O)N[C@@H](CCCNC(=N)N)C(=O)N2CC[C@@H](C)C[C@@H]2C(=O)O)C1 (some centres not stated) [ARGATROBAN]
fold change (FC) [3]: 2.3 | fold change (FC) [4]: 4 | Time [5]: 143.5 s | Time [6]: 238.6 s

CC[C@H](CC[C@@H](C)[C@H]1CC[C@H]2[C@@H]3CC=C4C[C@@H](O)CC[C@]4(C)[C@H]3CC[C@]12C)C(C)C [BETA-SITOSTEROL]
Activity [7]: inactive | Activity [8]: Active | Activity [9]: Non-Toxic | inhibition in vivo at 50 mg/kg [10]: 23.4% | inhibition [11]: inactive | fold change (FC) [3]: 1.6 | inhibition [12]: Dose-dependent effect | Activity [13]: Active | Activity [14]: inactive | inhibition in vivo at 25 mg/kg [15]: 15.2% | fold change (FC) [4]: 1.1 | inhibition in vivo at 25 mg/kg [16]: 31.3% | Activity [17]: Dose-dependent effect | Activity [18]: Dose-dependent effect | Time [5]: 61 s | inhibition in vivo at 12.5 mg/kg [19]: 23.2% | inhibition in vivo at 50 mg/kg [20]: 47.3% | inhibition in vivo at 50 mg/kg [21]: 42.3% | Activity [22]: Active | Activity [23]: 7.7 mg/µM | pKi [24]: 6.57 | Ka [25]: 109 M⁻¹ | Activity [26]: Non-Toxic | inhibition [27]: inactive | inhibition [28]: Dose-dependent effect | inhibition in vivo at 12.5 mg/kg [29]: 14.5% | inhibition [30]: Dose-dependent effect | Activity [31]: Tde | inhibition [32]: Active | Activity [33]: 15.8 mg/µM | inhibition [34]: Dose-dependent effect | Time [6]: 193.5 s | Activity [35]: 9.2 mg/µM | inhibition in vivo at 12.5 mg/kg [36]: 10.5% | Activity [37]: 1 mg/µM | Activity [38]: Active | Activity [39]: Active | inhibition in vivo at 25 mg/kg [40]: 36.5% | inhibition [41]: Dose-dependent effect | APTT [42]: 28.2 s | Activity [43]: inactive
